Data published in patent publication US20180116993A1, “MODULATORS OF FARNESOID X RECEPTOR AND METHODS FOR THE USE THEREOF” (XIAMEN UNIVERSITY, priority 2015, published 2018).
Like-named read-outs stand apart in the source and are kept apart here. Marks after values point to notes of the source that are not given here.

What was measured:
[1] = test system: human hepatoma HepG2 cells; test: MTT cell viability assay, HepG2; assay type: cell-based; conditions: 48 h, read-out: Cell viability as a percentage of the cells treated with DMSO, HepG2
From the text: (§1) The MTT assay is a colorimetric assay for assessing cell metabolic activity. It is widely used in high-throughput screening of antitumor drugs due to its high sensitivity and economical features. In this example, MTT was used to detect the inhibitory effects of compounds on various cancer cell lines. Cancer cells including human colorectal adenocarcinoma HCT15 cells, RA-resistant human colon cancer HCT116 cells, human cervical carcinoma Hela cells, human hepatoma HepG2 cells and human breast cancer MCF7 cells were cultured in DMEM medium containing 10% fetal bovine serum. 20 uM or 40 uM of compounds were administered to treat cells, cell viability is detected by MTT assay and expressed as a percentage of the cells treated with DMSO (Table 4).

[2] = test system: RA-resistant human colon cancer HCT116 cells; test: MTT cell viability assay, HCT116; assay type: cell-based; conditions: 48 h, read-out: Cell viability as a percentage of the cells treated with DMSO, HCT116; for viability at 20 µM: HCT-116, 20 uM; for viability at 40 µM: HCT-116, 40 uM
From the text: as §1

[3] = test system: human colorectal adenocarcinoma HCT15 cells; test: MTT cell viability assay, HCT15; assay type: cell-based; conditions: 48 h, read-out: Cell viability as a percentage of the cells treated with DMSO, HCT15; for viability at 20 µM: HCT-15, 20 uM; for viability at 40 µM: HCT-15, 40 uM
From the text: as §1

[4] = molecular target: T1, full-length FXR (Homo sapiens, UniProt Q96RI1); test: Cell-based FXR transactivation, EcRE luciferase reporter in COS-7 cells; conditions: Table 2; for Cell-based FXR transactivation Fold changes by 5 μM compound: positive: induction, minus: repression; for EC50: EcRE luciferase reporter
T1 construct: The cells were co-transfected with plasmids encoding full-length FXR and the cognate luciferase reporter EcRE-Luc; expressed in transfected cells; host or cells: COS-7
T1 sequence (Q96RI1 1-486): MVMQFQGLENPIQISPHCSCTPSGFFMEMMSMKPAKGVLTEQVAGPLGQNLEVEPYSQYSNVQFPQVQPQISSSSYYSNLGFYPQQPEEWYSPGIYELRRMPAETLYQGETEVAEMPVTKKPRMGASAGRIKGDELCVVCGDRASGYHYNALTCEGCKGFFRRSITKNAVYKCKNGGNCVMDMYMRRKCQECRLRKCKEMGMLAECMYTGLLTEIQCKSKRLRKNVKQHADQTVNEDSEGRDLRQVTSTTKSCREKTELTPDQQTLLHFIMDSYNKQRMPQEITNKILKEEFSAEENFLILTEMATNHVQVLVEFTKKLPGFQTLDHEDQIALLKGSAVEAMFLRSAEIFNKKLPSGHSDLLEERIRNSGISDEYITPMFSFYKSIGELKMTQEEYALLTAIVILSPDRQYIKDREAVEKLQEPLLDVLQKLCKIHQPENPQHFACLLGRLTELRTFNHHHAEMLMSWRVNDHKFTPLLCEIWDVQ
Description: COS-7 cells were cotransfected with plasmids encoding full length FXR.
For transient transfection assay, COS-7 cells were maintained in DMEM containing 10% fetal bovine serum and were transiently transfected using Lipofectamine 2000 (Invitrogen). Before 24 h of transfection, 24-well plates were plated. The cells were co-transfected with plasmids encoding full-length FXR and the cognate luciferase reporter EcRE-Luc. Ligands were added 5 hours after transfection. Cells were harvested 24 hours later for the luciferase assays according to the manufacturer's instructions (Dual-Luciferase® Reporter Assay System, Promega). Luciferase activities were normalized to renilla activity co-transfected as an internal control.

[5] = test system: inflammatory cytokines in tissues of db/db mice; test: Inflammatory cytokine mRNA levels in tissues of high-fat diet fed db/db mice (RT-PCR); assay type: in vivo, mouse; conditions: 5 mg/kg
From the text: In this example, we detected the levels of various inflammatory cytokines including iNOS, IFNγ, TGFβ, TNFα, COX2, IL-1β, IL-6, SAA1, MIP-1α and CD36 in liver, kidney, white adipose tissue (WAT) in various mice models, including wild type mice treated with APAP in example 4, high-fat diet fed diabetic and obesity db/db and KK-Ay mice in example 5, high-fat diet fed wild-type mice in Example 5, as well as in primary hepatocytes with LPS induced inflammation, using RT-PCR.

[6] = test system: human cervical carcinoma Hela cells; test: MTT cell viability assay, Hela; assay type: cell-based; conditions: 48 h, read-out: Cell viability as a percentage of the cells treated with DMSO, Hela
From the text: as §1

[7] = test system: human breast cancer MCF7 cells; test: MTT cell viability assay, MCF-7; assay type: cell-based; conditions: 48 h, read-out: Cell viability as a percentage of the cells treated with DMSO, MCF-7
From the text: as §1

[8] = test system: db/db mice; test: Serum/blood metabolic parameters in high-fat diet fed db/db mice; assay type: in vivo, mouse; conditions: 10 mg/kg, treat for 10 days, vehicle 527 ± 63
From the text: KK-Ay mice (KK/Upj-Ay/J) are animal models with moderate obese and diabetes with insulin resistance. KK-Ay mice develop hyperglycemia, hyperinsulinemia, glucose intolerance and obesity as well as fat accumulation in liver by eight weeks of age. Pancreatic islets are hypertrophied and the β-cells are degranulated. db/db mice (BKS.Cg-Dockr+/+ Lepr^db/Jnju) are animal models of type II diabetes. They have the phenotype of insulin resistance. These model mice were used to detect the functions of our compounds on metabolic diseases.
8-10 weeks age mice were maintained as example 4, and fed with high-fat diet (Research Diets, D12492). Mice were i.p. injected with compounds once daily for 7, 10, 11 or 14 days as indicated in each table. After the last compounds injection, mice were fasted for 6 hours with free access to water, and then sacrificed. Part of each liver was fixed in 4% paraformaldehyde for H&E staining, and other liver tissues were stored in liquid nitrogen for enzyme activity measurement and gene expression analysis by RT-PCR. The serums were collected to measure metabolic parameters, including serum glucose, insulin, cholesterol, free fatty acid (FFA) and triglyceride levels. Serum glucose was analyzed using glucose oxidase method (Applygen, Beijing, China). The blood glucose in Table 11 was measured with Berenger blood glucose test strips (B/BRAUN, German) from blood by cutting mice tail after the 6th injection and following fast for 16 hours. Serum cholesterol and FFA were analyzed using Cholesterol Assay Kit and FFA Assay Kit (Bioassay Systems, USA; Nanjing Jiancheng Bioengineering Institute, China; FFA ELISA, R&D, USA), respectively. Serum triglyceride was analyzed using Triglyceride Assay Kit (Bioassay Systems, USA; WAKO Chemicals Inc., Japan; Applygen, Beijing, China). Liver triglyceride was analyzed using Tissue triglyceride assay kit (Applygen, Beijing, China). Serum insulin levels were measured by the Ultra Sensitive Mouse Insulin ELISA Kit (Crystal Chem. Inc., USA). RNA was isolated using Tissue RNA kit (Omega Bio-Tek, GA). The first strand cDNA were obtained by TAKARA reverse transcription kit. Real-time quantitative PCR were performed on a CFX96™ Real-Time PCR Detection System (Bio-Rad) using SYBR Premix Ex Taq™ (TAKARA). Relative mRNA expression levels were normalized to actin levels. […]

[9] = test system: db/db mice; test: Hepatic triglyceride, liver histology, serum ALT and ALP in high-fat diet fed db/db mice; assay type: in vivo, mouse; conditions: 10 mg/kg for 10 days
Description: Liver tissues fixed in 4% paraformaldehyde in example 5 were performed for H&E staining by standard procedures. Liver tissues fixed in 4% paraformaldehyde were embedded in optimum cutting temperature compound (OCT), and cryosectioned. Frozen liver sections were stained with 0.3% oil red O according to standard procedures.
The triglyceride levels in liver tissues from mice treated with compounds were analyzed using Tissue triglyceride assay kit (Applygen, Beijing, China).
Alkaline Phosphatase (ALP) is a marker of cholestasis. Cholestasis can be suspected when there is an elevation of ALP enzymes. In fact, greater than 90% of patients with bile stasis will have an elevated alkaline phosphatase. […] The aminotransferase is used to evaluate the presence of hepatitis and may be elevated in cholestasis or with common bile duct obstruction. In this example, 8-10 week age db/db mice were fed with high-fat diet and treated with 10 mg/kg of compounds once daily for 10 days as in Example 5. The activities of serum ALP and ALT were analyzed using ALP kit and ALT kit, respectively (Nanjing Jiancheng Engineering Institute, China).

[10] = molecular target: T2, FXR ligand binding domain (LBD) (Homo sapiens, UniProt Q96RI1); test: AlphaScreen assay: FXR LBD recruitment of coregulator peptide motifs (SRC2-3, SRC1-2); assay type: biochemical; conditions: Table 2
T2 construct: made in house
T2 sequence (Q96RI1 262-486 limits assumed): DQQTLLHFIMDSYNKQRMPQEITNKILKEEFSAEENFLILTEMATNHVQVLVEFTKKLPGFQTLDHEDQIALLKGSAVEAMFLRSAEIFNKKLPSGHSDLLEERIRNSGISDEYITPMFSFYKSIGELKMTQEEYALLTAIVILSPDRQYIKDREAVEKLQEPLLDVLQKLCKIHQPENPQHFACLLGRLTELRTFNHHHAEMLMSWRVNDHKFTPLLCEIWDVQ
Description: In search of novel ligands for FXR, we used FXR ligand binding domain (LBD) as a bait to screen chemical libraries based on AlphaScreen biochemical assay, which determines the efficacy of small molecules in influencing binding affinity of FXR with coregulator peptides (see e.g., Jin et al., (2013) Nature communications 4, 1937).
The binding of the cofactor peptide motifs to FXR ligand binding domain (LBD) in response to ligands was determined by AlphaScreen assays using a hexahistidine detection kit from Perkins-Elmer. The FXR LBD protein was purified as described previously (see e.g., Jin et al., (2013) Nature communications 4, 1937). The experiments were conducted with approximately 20-40 nM receptor LBD and 20 nM biotinylated cofactor peptides in the presence of 5 μg/ml donor and acceptor beads in a buffer containing 50 mM MOPS, 50 mM NaF, 0.05 mM CHAPS, and 0.1 mg/ml bovine serum albumin, all adjusted to a pH of 7.4.

[11] = SRC1-2 peptide, read-out: EC50 (μM) of FXR binding by AlphaScreen assay recruit SRC1-2
[12] = SRC2-3 peptide, read-out: EC50 (μM) of FXR binding by AlphaScreen assay recruit SRC2-3

| Structure (SMILES) | Cell-based FXR transactivation Fold changes by 5 μM compound [4] | EC50 [4] | EC50 [10, 11] | EC50 [10, 12] | viability at 20 µM [1] | viability at 40 µM [1] | viability at 20 µM [2] | viability at 40 µM [2] | viability at 20 µM [3] | viability at 40 µM [3] | mRNA level of iNOS (fold), Liver tissue ([5]; vehicle 1.06 ± 0.14) | mRNA level of iNOS (fold), Colon tissue ([5]; vehicle 1.12 ± 0.23) | viability at 20 µM [6] | viability at 40 µM [6] | viability at 20 µM [7] | viability at 40 µM [7] | Serum Glucose (mg/dl) [8] | Hepatic triglyceride (mM/g) ([9]; vehicle 148 ± 14) | Serum ALT (U/L) ([9]; vehicle 377 ± 48, Table 15) |
| --- | --- | --- | --- | --- | --- | --- | --- | --- | --- | --- | --- | --- | --- | --- | --- | --- | --- | --- | --- |
| Cc1cc(C(=O)OC2CC3CCC2(C)C3(C)C)ccc1[N+](=O)[O-] (centres unmarked) [XD-15, 1,7,7-trimethyl-bicyclo[2.2.1]-heptan-2-yl 3-methyl-4-nitro-benzoate] | 3 | 1 to 10 µM |  |  | 79% | 72 ± 3% | 59 ± 3% | 40 ± 3% | 100 ± 2% | 62 ± 3% | 0.47 ± 0.21^a fold | 0.41 ± 0.16^a fold | 89 ± 6% | 70 ± 3% | 81 ± 4% | 70% |  |  |  |
| Cc1cc(C(=O)OC2CCC3CCCCC3C2)ccc1N (centres unmarked) [XD-31, decahydro-naphthalen-2-yl 4-amino-3-methylbenzoate] | −5 | < 1 µM | < 1 µM | < 1 µM | 100 ± 1% | 90 ± 1% | 63 ± 1% | 59 ± 1% | 100 ± 1% | 41 ± 1% |  |  | 74% | 42 ± 1% | 100 ± 1% | 100 ± 1% | 326 ± 51^a mg/dl |  |  |

Further lines, with some results ahead:

| Cell-based FXR transactivation Fold changes by 5 μM compound [4] | EC50 [4] | EC50 [10, 11] | EC50 [10, 12] | Structure (SMILES) | viability at 20 µM [1] | viability at 40 µM [1] | viability at 20 µM [2] | viability at 40 µM [2] | viability at 20 µM [3] | viability at 40 µM [3] | mRNA level of iNOS (fold), Liver tissue ([5]; vehicle 1.06 ± 0.14) | mRNA level of iNOS (fold), Colon tissue ([5]; vehicle 1.12 ± 0.23) | viability at 20 µM [6] | viability at 40 µM [6] | viability at 20 µM [7] | viability at 40 µM [7] | Serum Glucose (mg/dl) [8] | Hepatic triglyceride (mM/g) ([9]; vehicle 148 ± 14) | Serum ALT (U/L) ([9]; vehicle 377 ± 48, Table 15) |
| --- | --- | --- | --- | --- | --- | --- | --- | --- | --- | --- | --- | --- | --- | --- | --- | --- | --- | --- | --- |
| 1.2 | < 1 µM |  |  | O=C(OC1CCCCCCC1)c1ccc([N+](=O)[O-])cc1 [XD-24, cyclooctyl 4-nitrobenzoate] |  |  |  |  |  |  |  |  |  |  |  |  | 307 ± 39^a mg/dl |  |  |
| 1.5 | < 1 µM |  |  | O=C(OC1CC2CCC1C2)c1ccc([N+](=O)[O-])cc1 (centres unmarked) [XD-25, bicyclo[2.2.1]-heptan-2-yl 4-nitrobenzoate] | 100 ± 5% | 90 ± 4% | 79 ± 2% | 66 ± 5% | 100 ± 4% | 89 ± 4% |  |  | 100 ± 2% | 100 ± 2% | 100 ± 2% | 97 ± 2% | 389 ± 47^a mg/dl | 116 ± 5 ^c mM/g | 124 ± 21 ^a U/L |
| 2 | 1 to 10 µM | < 1 µM | < 1 µM | O=C(OC1CCC2CCCCC2C1)c1ccc(F)cc1 (centres unmarked) [XD-33, decahydro-naphthalen-2-yl 4-fluorobenzoate] | 100 ± 2% | 95 ± 2% | 97 ± 2% | 95 ± 2% | 100 ± 2% | 100 ± 2% |  |  | 97 ± 2% | 98 ± 2% | 100 ± 2% | 95 ± 2% | 400 ± 23^a mg/dl |  |  |
